# Results from patent publication US20240067665A1, “SMALL MOLECULES FOR BORON NEUTRON CAPTURE THERAPY” (Aviko Radiopharmaceuticals, LLC, priority 2022, published 2024).
# Assays:
# Conditions in all cases: 100 uM
# SAS (head & neck cancer) = assay: Cell uptake assay, SAS cells; type: cell-based, human
# Procedure: (§1) • 1.1.1 15 mL of cell culture medium was placed into a T225 flask. • 1.1.2 The flask was placed in a humidified 37° C., 5% CO2 incubator for 15 minutes to allow medium to equilibrate to the proper pH and temperature. • 1.1.3 The vial was removed from liquid nitrogen and thawed rapidly by placing at 37° C. in a water bath with gentle agitation for 1-2 minutes and then decontaminated by wiping with 70% ethanol before opening in a Class II biological safety cabinet. • 1.1.4 The vial contents were transferred dropwise into 10 mL of cell culture medium in a sterile 15 mL conical tube. • 1.1.5 The cells were centrifuged at 1,300 rpm for 5 minutes. • 1.1.6 The supernatant was aspirated and re-suspended the cells and transferred the cells into T225 flask containing cell culture medium.
# (§2) • 1.2.1 Culture medium were renewed every 2-3 days. • 1.2.2 Keep the flask in a humidified 37° C., 5% CO2 incubator
# (§3) • Cells were harvested and diluted in culture medium to the designated concentration. Then the cells were cultured in T25 flasks, one T25 flask for one sample. 2.2 Formulation of test compounds • 2.2.1 L-Boronophenylalanine (L-BPA, 4-boron-L-phenylalanine, Purity: 95%, Chemical formula: C9H12BNO4, MW: 209.01, CAS: 76410-58-7) and fructose were dissolved in PBS at a molar ratio of 1:5, and then a 1.27 M ratio of 1 N NaOH is added. The mixture was stirred until L-BPA is completely dissolved, and the pH value was titrated to 7.2-7.4 with 1 N HC1. • 2.2.2 For test compounds other than BPA, stock solutions were prepared of each compound in DMSO or fructose formulation at a concentration of 20 mM (such that final % DMSO in the cellular assay medium=0.5%) 2.3 Compound treatment • 2.3.1 The cells were seeded overnight (12-18 hours) to allow the cells to adhere well. • 2.3.2 The stock solution of each compound was added to each T25 flask such that the final concentration for each compound is 100 uM (0.1 mM). • 2.3.3 The flasks were placed in a 37° C., 5% CO2 incubator for 1 hour, 4 hours and 24 hours. • 2.3.4 After treatment for 1 hour, 4 hour, and 24 hours, the cells were collected by using 0.25% Trypsin with 0.53 mM EDTA. • 2.3.5 Centrifuged at 1,300 rpm for 5 min to collect cell pellets.
# B16F10 = assay: Cell uptake assay, B16F10 cells; type: cell-based, mouse
# Procedure: as §1, §2, §3
# NIH-3T3 = assay: Cell uptake assay, NIH-3T3 cells; type: cell-based, mouse
# Procedure: as §1, §2, §3
# U87-MG (glioblastoma) = assay: Cell uptake assay, U87-MG cells; type: cell-based, human
# Procedure: as §1, §2, §3
Structure (SMILES),"Cell uptake, Mean, SAS (SAS (head & neck cancer); 4 hours)","Cell uptake, Mean, SAS (SAS (head & neck cancer); 24 hours)","Cell uptake, Mean, B16F10 (B16F10; 4 hours)","Cell uptake, Mean, B16F10 (B16F10; 24 hours)","Cell uptake, Mean, NIH-3T3 (NIH-3T3; 1 hour)","Cell uptake, Mean, NIH-3T3 (NIH-3T3; 4 hours)","Cell uptake, Mean, B16F10 (B16F10; 1 hour)","Cell uptake, Mean, NIH-3T3 (NIH-3T3; 24 hours)","Cell uptake, Mean, U87-MG (U87-MG (glioblastoma); 1 hour)","Cell uptake, Mean, U87-MG (U87-MG (glioblastoma); 4 hours)","Cell uptake, Mean, U87-MG (U87-MG (glioblastoma); 24 hours)","Cell uptake, Mean, SAS (SAS (head & neck cancer); 1 hour)"
"N[C@@H](Cc1cccc(CCB(O)O)c1)C(=O)O [compound 5, (S)-2-amino-3-(3-(2-boronoethyl)phenyl)propanoic acid]",225 ng/10^6 cell,214 ng/10^6 cell,157 ng/10^6 cell,262 ng/10^6 cell,171 ng/10^6 cell,77.2 ng/10^6 cell,–,–,–,–,–,–
"N[C@@H](Cc1cccc(OCB(O)O)c1)C(=O)O [compound 1, (S)-2-amino-3-(3-(boronomethoxy)phenyl)propanoic acid]",755 ng/10^6 cell,828 ng/10^6 cell,232 ng/10^6 cell,517 ng/10^6 cell,127 ng/10^6 cell,194 ng/10^6 cell,112 ng/10^6 cell,133 ng/10^6 cell,227 ng/10^6 cell,233 ng/10^6 cell,336 ng/10^6 cell,–
"N[C@@H](Cc1ccc(OCB(O)O)c(F)c1)C(=O)O [compound 10, (2S)-2-amino-3-{4-[(dihydroxyboranyl)methoxy]-3-fluorophenyl}propanoic acid]",1850 ng/10^6 cell,–,442 ng/10^6 cell,814 ng/10^6 cell,81.9 ng/10^6 cell,204 ng/10^6 cell,–,–,295 ng/10^6 cell,673 ng/10^6 cell,681 ng/10^6 cell,1285 ng/10^6 cell
"N[C@@H](Cc1cc(F)cc(OCB(O)O)c1)C(=O)O [compound 13, (2S)-2-amino-3-[3-[(dihydroxyboranyl)methoxy]-5-fluorophenyl]propanoic acid]",1012 ng/10^6 cell,1077 ng/10^6 cell,310 ng/10^6 cell,304 ng/10^6 cell,183 ng/10^6 cell,222 ng/10^6 cell,180 ng/10^6 cell,168 ng/10^6 cell,521 ng/10^6 cell,828 ng/10^6 cell,735 ng/10^6 cell,903 ng/10^6 cell
"NC(Cc1ccc(CCB(O)O)cc1F)C(=O)O (single isomer, unassigned) [compound 9, (R*)-2-amino-3-(4-(2-boronoethyl)-2-fluorophenyl)propanoic acid]",103 ng/10^6 cell,211 ng/10^6 cell,66.7 ng/10^6 cell,119 ng/10^6 cell,34.4 ng/10^6 cell,43.0 ng/10^6 cell,–,37.2 ng/10^6 cell,90.1 ng/10^6 cell,–,74.6 ng/10^6 cell,129 ng/10^6 cell
"NC(Cc1ccc(CCB(O)O)cc1F)C(=O)O (single isomer, unassigned) [compound 8, (S*)-2-amino-3-(4-(2-boronoethyl)-2-fluorophenyl)propanoic acid]",66.7 ng/10^6 cell,359 ng/10^6 cell,31.4 ng/10^6 cell,–,14.7 ng/10^6 cell,26.4 ng/10^6 cell,26.9 ng/10^6 cell,–,16.7 ng/10^6 cell,31.1 ng/10^6 cell,16.3 ng/10^6 cell,44.6 ng/10^6 cell
"N[C@@H](Cc1cccc(C2(B(O)O)CC2)c1)C(=O)O [compound 14, (2S)-2-amino-3-{3-[1-(dihydroxyboranyl)cyclopropyl]phenyl}propanoic acid]",–,–,–,–,–,444 ng/10^6 cell,–,–,–,–,–,–
"N[C@@H](Cc1ccc(OCCB(O)O)cc1F)C(=O)O [compound 6, (2S)-2-amino-3-{4-[2-(dihydroxyboranyl)ethoxy]-2-fluorophenyl}propanoic acid]",106 ng/10^6 cell,46.0 ng/10^6 cell,92.3 ng/10^6 cell,–,53.4 ng/10^6 cell,23.2 ng/10^6 cell,–,–,160 ng/10^6 cell,137 ng/10^6 cell,–,152 ng/10^6 cell
"N[C@@H](Cc1ccc(OCCB(O)O)cc1)C(=O)O [compound 3, (2S)-2-amino-3-{4-[2-(dihydroxyboranyl)ethoxy]phenyl}propanoic acid]",499 ng/10^6 cell,–,222 ng/10^6 cell,117 ng/10^6 cell,132 ng/10^6 cell,138 ng/10^6 cell,145 ng/10^6 cell,–,197 ng/10^6 cell,211 ng/10^6 cell,183 ng/10^6 cell,534 ng/10^6 cell
"N[C@@H](Cc1ccc(C2(B(O)O)CC2)cc1)C(=O)O [compound 15, (2S)-2-amino-3-{4-[1-(dihydroxyboranyl)cyclopropyl]phenyl}propanoic acid]",283 ng/10^6 cell,419 ng/10^6 cell,–,458 ng/10^6 cell,223 ng/10^6 cell,185 ng/10^6 cell,193 ng/10^6 cell,169 ng/10^6 cell,225 ng/10^6 cell,337 ng/10^6 cell,269 ng/10^6 cell,491 ng/10^6 cell
"N[C@@H](Cc1ccc(F)c(OCB(O)O)c1)C(=O)O [compound 11, (2S)-2-amino-3-{3-[(dihydroxyboranyl)methoxy]-4-fluorophenyl}propanoic acid]",454 ng/10^6 cell,999 ng/10^6 cell,121 ng/10^6 cell,202 ng/10^6 cell,32.4 ng/10^6 cell,92.8 ng/10^6 cell,50.6 ng/10^6 cell,122 ng/10^6 cell,113 ng/10^6 cell,322 ng/10^6 cell,309 ng/10^6 cell,529 ng/10^6 cell
"N[C@@H](Cc1ccc(OCB(O)O)cc1F)C(=O)O [compound 2, (S)-2-amino-3-(4-(boronomethoxy)-2-fluorophenyl)propanoic acid]",1590 ng/10^6 cell,1595 ng/10^6 cell,333 ng/10^6 cell,881 ng/10^6 cell,–,–,151 ng/10^6 cell,205 ng/10^6 cell,123 ng/10^6 cell,–,626 ng/10^6 cell,1125 ng/10^6 cell
"NC(Cc1ccc(OCB(O)O)cc1)C(=O)O (stereo not shown) [compound 4, 2-amino-3-{4-[(dihydroxyboranyl)methoxy]phenyl}propanoic acid]",495 ng/10^6 cell,997 ng/10^6 cell,95.6 ng/10^6 cell,101 ng/10^6 cell,27.1 ng/10^6 cell,58.6 ng/10^6 cell,46.1 ng/10^6 cell,66.6 ng/10^6 cell,42.8 ng/10^6 cell,113 ng/10^6 cell,191 ng/10^6 cell,445 ng/10^6 cell
